From BindingDB's records for doi:10.7270/Q2J67FB5 (Nmmlsc, 2007)

target: T1, fMet-Leu-Phe receptor (Homo sapiens, UniProt P21462); test: formyl peptide receptor binders – dose response (AID 519)
T1 sequence (P21462 whole entry): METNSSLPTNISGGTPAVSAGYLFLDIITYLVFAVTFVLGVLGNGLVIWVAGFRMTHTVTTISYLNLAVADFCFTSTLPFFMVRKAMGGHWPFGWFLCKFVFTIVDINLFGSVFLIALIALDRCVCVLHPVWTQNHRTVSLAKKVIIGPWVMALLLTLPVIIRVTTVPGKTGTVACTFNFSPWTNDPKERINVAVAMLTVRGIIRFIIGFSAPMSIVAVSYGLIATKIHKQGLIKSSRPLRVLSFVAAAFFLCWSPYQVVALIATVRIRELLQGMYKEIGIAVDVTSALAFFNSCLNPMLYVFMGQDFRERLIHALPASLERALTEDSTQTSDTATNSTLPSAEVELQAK

Structure (SMILES) | IC50
C=CCOc1ccc(C2C(C(=O)c3cccs3)C(=O)C(=O)N2c2nnc(C)s2)cc1 (stereo not given) [1-(5-methyl-1,3,4-thiadiazol-2-yl)-4-oxidanyl-2-(4-prop-2-enoxyphenyl)-3-thiophen-2-ylcarbonyl-2H-pyrrol-5-one] | 40.5 µM
CC1=NC(C)=C(C#N)C(c2ccc3ncccc3c2)C1C#N (stereo not given) | > 66.7 µM
COC(=O)Cc1n[nH]c2c1C(C1C=CCCC1)C(C#N)C(=N)O2 (stereo not given) [2-[6-amino-5-cyano-4-(1-cyclohex-2-enyl)-2,4-dihydropyrano[2,3-c]pyrazol-3-yl]acetic acid methyl ester] | > 66.7 µM
O=C1CCCC(=O)C1C(C#Cc1ccccc1)C1C(=O)CCCC1=O [3-hydroxy-2-[1-(2-hydroxy-6-keto-cyclohexen-1-yl)-3-phenyl-prop-2-ynyl]cyclohex-2-en-1-one] | > 66.7 µM
Cc1nc2c(C)cccn2c1C(=O)C1C(=O)C(=O)N(CCN2CCOCC2)C1c1cccs1 (stereo not given) [(4E)-4-[(2,8-dimethyl-3-imidazo[1,2-a]pyridinyl)-hydroxymethylidene]-1-[2-(4-morpholinyl)ethyl]-5-thiophen-2-ylpyrrolidine-2,3-dione] | > 66.7 µM
COC(=O)c1[nH]c(C)c(C(=O)C2C(=O)C(=O)N(CCN3CCOCC3)C2c2cccnc2)c1C (stereo not given) [4-[(E)-hydroxy-[1-[2-(4-morpholinyl)ethyl]-4,5-dioxo-2-(3-pyridinyl)-3-pyrrolidinylidene]methyl]-3,5-dimethyl-1H-pyrrole-2-carboxylic acid methyl ester] | 20.8 µM
C=C(c1ccc(Br)cc1)c1sc(N2CCCC2)nc1O [(5Z)-5-[1-(4-bromophenyl)ethylidene]-2-(1-pyrrolidinyl)-4-thiazolone] | > 66.7 µM
COC(=O)c1[nH]c(C)c(C(=O)C2C(=O)C(=O)N(CCN3CCOCC3)C2c2cccs2)c1C (stereo not given) | 5 µM
COc1ccc(OC)c(C2C(C(=O)c3cccs3)C(=O)C(=O)N2c2cc(C)on2)c1 (stereo not given) [2-(2,5-dimethoxyphenyl)-1-(5-methyl-1,2-oxazol-3-yl)-4-oxidanyl-3-thiophen-2-ylcarbonyl-2H-pyrrol-5-one] | > 66.7 µM
Cc1ccc(C2C(C(=O)c3sc(C)nc3C)C(=O)C(=O)N2CCN2CCOCC2)o1 (stereo not given) [3-(2,4-dimethyl-1,3-thiazole-5-carbonyl)-4-hydroxy-2-(5-methylfuran-2-yl)-1-(2-morpholin-4-ylethyl)-2H-pyrrol-5-one] | > 66.7 µM
CC1Cc2cc(C(=O)C3C(=O)C(=O)N(CCN4CCOCC4)C3c3ccccc3F)ccc2O1 (stereo not given) [(4E)-5-(2-fluorophenyl)-4-[(2-methyl-2,3-dihydro-1-benzofuran-5-yl)-oxidanyl-methylidene]-1-(2-morpholin-4-ylethyl)pyrrolidine-2,3-dione] | > 66.7 µM
O=C1C(=O)N(CCOCCO)C(c2cccs2)C1C(=O)c1cccs1 (stereo not given) [1-[2-(2-hydroxyethyloxy)ethyl]-4-oxidanyl-2-thiophen-2-yl-3-thiophen-2-ylcarbonyl-2H-pyrrol-5-one] | 21.4 µM

Continued, values first:

IC50 | Structure (SMILES)
47.7 µM | COc1cc(C2C(C(=O)c3ccco3)C(=O)C(=O)N2c2cc(C)on2)cc(Br)c1O (stereo not given) [2-(3-bromanyl-5-methoxy-4-oxidanyl-phenyl)-3-(furan-2-ylcarbonyl)-1-(5-methyl-1,2-oxazol-3-yl)-4-oxidanyl-2H-pyrrol-5-one]
> 66.7 µM | COc1cccc(C2C(C(=O)c3cc4ccccc4o3)C(=O)C(=O)N2c2cc(C)on2)c1OC (stereo not given) [3-(1-benzofuran-2-carbonyl)-2-(2,3-dimethoxyphenyl)-4-hydroxy-1-(5-methyl-1,2-oxazol-3-yl)-2H-pyrrol-5-one]
32 µM | CCOc1ccc(C(=O)C2C(=O)C(=O)N(CC3CCCO3)C2c2ccco2)cc1 (stereo not given) [(4Z)-4-[(4-ethoxyphenyl)-hydroxymethylidene]-5-(2-furanyl)-1-(2-oxolanylmethyl)pyrrolidine-2,3-dione]
38.6 µM | COc1ccc(C2C(C(=O)c3ccccc3)C(=O)C(=O)N2CC(C)O)c(OC)c1 (stereo not given) [(4Z)-5-(2,4-dimethoxyphenyl)-4-[hydroxy(phenyl)methylene]-1-(2-hydroxypropyl)pyrrolidine-2,3-quinone]
13.6 µM | O=C1C(=O)N(Cc2ccccc2)C(c2ccncc2)C1C(=O)c1ccco1 (stereo not given) [1-Benzyl-4-(furan-2-carbonyl)-3-hydroxy-5-pyridin-4-yl-1,5-dihydro-pyrrol-2-one]
9.9 µM | CCOc1ccc(C2C(C(=O)c3ccco3)C(=O)C(=O)N2CCCn2ccnc2)cc1 (stereo not given) [2-(4-ethoxyphenyl)-3-(furan-2-carbonyl)-4-hydroxy-1-(3-imidazol-1-ylpropyl)-2H-pyrrol-5-one]
> 66.7 µM | C=CCOc1cccc(C2C(C(=O)c3ccco3)C(=O)C(=O)N2CCN2CCOCC2)c1 (stereo not given) [3-(furan-2-carbonyl)-4-hydroxy-1-(2-morpholin-4-ylethyl)-2-(3-prop-2-enoxyphenyl)-2H-pyrrol-5-one]
21.1 µM | CCOc1ccc(C(=O)C2C(=O)C(=O)N(CC3CCCO3)C2c2ccc(C)o2)cc1 (stereo not given) [(4Z)-4-[(4-ethoxyphenyl)-hydroxymethylidene]-5-(5-methyl-2-furanyl)-1-(2-oxolanylmethyl)pyrrolidine-2,3-dione]
29.6 µM | COCCCN1C(=O)C(=O)C(C(=O)c2ccccc2)C1c1ccc2c(c1)OCO2 (stereo not given) [(4E)-5-(1,3-benzodioxol-5-yl)-1-(3-methoxypropyl)-4-[oxidanyl(phenyl)methylidene]pyrrolidine-2,3-dione]
> 66.7 µM | O=C1C(=O)N(CCN2CCOCC2)C(c2ccccc2)C1C(=O)c1cccs1 (stereo not given) [1-(2-morpholin-4-ylethyl)-4-oxidanyl-2-phenyl-3-thiophen-2-ylcarbonyl-2H-pyrrol-5-one]
31.2 µM | COCCCN1C(=O)C(=O)C(C(=O)c2ccco2)C1c1cccc(Br)c1 (stereo not given) [2-(3-bromophenyl)-3-(furan-2-carbonyl)-4-hydroxy-1-(3-methoxypropyl)-2H-pyrrol-5-one]
> 66.7 µM | COc1cccc2cc(C(=O)C3C(=O)C(=O)N(Cc4ccco4)C3c3cccnc3)oc12 (stereo not given) [1-(2-furanylmethyl)-4-hydroxy-3-[(7-methoxy-2-benzofuranyl)-oxomethyl]-2-(3-pyridinyl)-2H-pyrrol-5-one]
> 66.7 µM | CCOc1cccc(C(=O)C2C(=O)C(=O)N(Cc3cccnc3)C2c2ccco2)c1 (stereo not given) [(4Z)-4-[(3-ethoxyphenyl)-hydroxymethylidene]-5-(2-furanyl)-1-(3-pyridinylmethyl)pyrrolidine-2,3-dione]
30.4 µM | CCOc1cc(C2C(C(=O)c3ccc(C)o3)C(=O)C(=O)N2CCc2ccccc2)ccc1O (stereo not given) [2-(3-ethoxy-4-hydroxyphenyl)-4-hydroxy-3-(5-methylfuran-2-carbonyl)-1-(2-phenylethyl)-2H-pyrrol-5-one]
> 66.7 µM | COc1cc(C2C(C(=O)c3ccco3)C(=O)C(=O)N2CCc2ccccc2)ccc1O (stereo not given) [3-(furan-2-carbonyl)-4-hydroxy-2-(4-hydroxy-3-methoxyphenyl)-1-(2-phenylethyl)-2H-pyrrol-5-one]
9.7 µM | C=CCOc1ccc(C2C(C(=O)c3ccco3)C(=O)C(=O)N2Cc2cccnc2)cc1 (stereo not given) [3-(furan-2-carbonyl)-4-hydroxy-2-(4-prop-2-enoxyphenyl)-1-(pyridin-3-ylmethyl)-2H-pyrrol-5-one]
13.8 µM | CCCOc1ccc(C2C(C(=O)c3ccc(C)o3)C(=O)C(=O)N2CCCn2ccnc2)cc1 (stereo not given) [1-(3-imidazol-1-ylpropyl)-3-(5-methylfuran-2-yl)carbonyl-4-oxidanyl-2-(4-propoxyphenyl)-2H-pyrrol-5-one]
19 µM | COc1ccc(CCN2C(=O)C(=O)C(C(=O)c3ccco3)C2c2cccs2)cc1OC (stereo not given) [1-[2-(3,4-Dimethoxy-phenyl)-ethyl]-4-(furan-2-carbonyl)-3-hydroxy-5-thiophen-2-yl-1,5-dihydro-pyrrol-2-one]
